Reference: PubChem BioAssay AID602421 (The Scripps Research Institute Molecular Screening Center, 2012)
Where “and” joins values, the source holds several entries; their conditions need not be identical. Equal entries are not always repeated. Calls of active or inactive are those of the source. The rule behind the calls is not given here.

molecular target: AddAB helicase-nuclease (Helicobacter pylori 26695); test: inhibition of H. pylori AddAB nuclease activity – biochemical, radioactivity, purified enzyme, IC50, late-stage follow-up (AID 602421); settings: radioactive DNA degradation

IC50	Structure (SMILES)
> 100 µM (inactive)	N#Cc1c(NC(=O)c2cccc(F)c2)sc2c1CCCC2
36 µM	N#Cc1c(NC(=O)c2ccco2)sc2c1CCC2
> 100 µM (inactive)	N#Cc1c(NC(=O)c2ccc(-c3ccccc3[N+](=O)[O-])o2)sc2c1CCCC2
> 100 µM (inactive)	N#Cc1c(NC(=O)c2ccccc2)sc2c1CCC2
96 µM	N#Cc1c(NC(=O)c2ccc([N+](=O)[O-])o2)sc2c1CCC2
11 µM	COC(=O)c1c(-c2ccccc2)csc1NC(=O)c1cnccn1
> 166 µM (inactive)	Cc1cccnc1NC(=O)c1ccc([N+](=O)[O-])o1
inactive	CCn1cc(C(=O)O)c(=O)c2cnc(N3CCN(C(=S)NC(=O)c4cccc(C)c4)CC3)nc21
55 µM	CNC(=O)c1c(NC(=O)c2nc(SCc3ccccc3)ncc2Cl)sc2c1CCCC2
17 µM	N#Cc1c(NC(=O)c2cnccn2)sc2c1CCCC2
79 µM	CCn1cc(C(=O)O)c(=O)c2cc(F)c(N3CCN(C(=S)Nc4ccccc4C(F)(F)F)CC3)cc21
> 100 µM (inactive)	NC(=O)c1ccsc1NC(=O)COC(=O)c1ccc([N+](=O)[O-])o1
> 100 µM (inactive)	O=C(OCC(=O)c1cccs1)c1ccc([N+](=O)[O-])o1
27 µM	CCn1cc(C(=O)O)c(=O)c2cnc(N3CCN(C(=S)Nc4cccc(C(F)(F)F)c4)CC3)nc21
> 100 µM (inactive)	N#Cc1c(NC(=O)c2ccc([N+](=O)[O-])o2)sc2c1CCCC2
> 100 µM (inactive)	Cc1ccc(C(=O)Nc2sc3c(c2C#N)CCCCC3)o1
25 µM	Cc1sc(NC(=O)c2ccc(Br)o2)c(C#N)c1C
> 100 µM (inactive)	O=C(Nc1ccc(N2CCOCC2)cc1)c1ccc([N+](=O)[O-])o1
93 µM	C=CCn1c(Sc2ncc([N+](=O)[O-])s2)n[nH]c1=O
> 166 µM (inactive)	Cc1ccc2nc(/C(C#N)=C\c3ccc([N+](=O)[O-])o3)[nH]c2c1
> 100 µM (inactive)	O=C(NCc1cccnc1)c1ccc([N+](=O)[O-])o1
> 100 µM (inactive)	O=C(Nc1cccc(NC(=O)c2ccccc2Cl)c1)c1ccc([N+](=O)[O-])o1
11 µM	CCn1cc(C(=O)O)c(=O)c2cc(F)c(N3CCN(C(=S)Nc4cccc(C(F)(F)F)c4)CC3)cc21
> 100 µM (inactive)	CC1(C)Cc2c(sc(NC(=O)c3ccco3)c2C#N)CO1
inactive	CCn1cc(C(=O)O)c(=O)c2cnc(N3CCN(C(=S)NCc4ccccc4)CC3)nc21
34 µM and > 100 µM (inactive)	CCn1cc(C(=O)O)c(=O)c2cnc(N3CCN(C(=S)Nc4ccccc4C(F)(F)F)CC3)nc21
> 100 µM (inactive)	O=C(Nc1ncccn1)c1ccc([N+](=O)[O-])o1
> 100 µM (inactive)	N#Cc1c(NC(=O)c2ccccc2C(=O)O)sc2c1CCCC2
